# Laboratory results: US20080319024A1, “Rosiglitazone Phosphate and Polymorphic Forms” (priority 2004, published 2008)
# What was measured:
# [1] = Exposure of Form A to different relative humidities, water content by Karl Fischer; assay type: physicochemical
# Protocol: The water content is determined by the Karl Fischer method.
# 5-[[4-[2-(methyl-2-pyridinylamino)ethoxy]phenyl]methyl]-2,4-thiazolidinedione phosphate hydrate in its polymorphic Form A was exposed to different relative humidities for about 24 hours.
# [2] = Stress test at 80° C. in a closed vial, degradation determined by HPLC; assay type: physicochemical
# [3] = comparator rosiglitazone maleate
SMILES,"Water content (Karl Fisher) ([1]; 45% relative humidity, about 24 hours) [% w/w]","Water content (Karl Fisher) ([1]; 63% relative humidity, about 24 hours) [% w/w]","Water content (Karl Fisher) ([1]; 86% relative humidity, about 24 hours) [% w/w]","Water content (Karl Fisher) ([1]; Initial, before exposure to humidity) [% w/w]",Stability (general statement) [2],"Degradation after stress test as determined by HPLC ([2]; 80° C., about 160 hours, closed vial)",Solubility in water compared to rosiglitazone maleate [3]
"CN(CCOc1ccc(CC2SC(=O)NC2=O)cc1)c1ccccn1.O=P(O)(O)O (stereo not shown) [Form A, 5-[[4-[2-(methyl-2-pyridinylamino)ethoxy]phenyl]methyl]-2,4-thiazolidinedione phosphate]",3.42,3.37,3.58,2.8,good stability,no degradation,
"CN(CCOc1ccc(CC2SC(=O)NC2=O)cc1)c1ccccn1.O=P(O)(O)O (stereo not shown) [Form E, 5-[[4-[2-(methyl-2-pyridinylamino)ethoxy]phenyl]methyl]-2,4-thiazolidinedione phosphate]",,,,,,,comparable or even more expressed
